What was measured:
SGK1 = target: T1, SGK1 (Homo sapiens, UniProt O00141); experiment: Mass spectrometry-based SGK1 kinase inhibitory assay (LC/MS of phosphorylated […]); assay type: biochemical; conditions: for reduction in SGK1 inhibitory activity, absence of -OH at C-8: compared with HBT
T1 sequence (O00141 1-431): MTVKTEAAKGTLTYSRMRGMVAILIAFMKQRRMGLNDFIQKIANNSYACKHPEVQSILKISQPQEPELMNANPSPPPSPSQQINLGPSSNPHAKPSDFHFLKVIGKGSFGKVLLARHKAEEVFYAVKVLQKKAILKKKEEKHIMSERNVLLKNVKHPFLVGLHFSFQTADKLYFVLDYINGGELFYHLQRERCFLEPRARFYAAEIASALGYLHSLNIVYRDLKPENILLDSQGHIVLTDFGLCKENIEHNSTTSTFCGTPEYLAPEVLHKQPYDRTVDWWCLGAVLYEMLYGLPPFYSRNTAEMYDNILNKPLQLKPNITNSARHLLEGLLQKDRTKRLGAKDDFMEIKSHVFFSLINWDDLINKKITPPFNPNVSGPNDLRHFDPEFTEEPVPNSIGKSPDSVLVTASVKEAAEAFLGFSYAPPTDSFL
From the text: To identify active compounds with SGK1 inhibitory activity from Ext.R, a novel mass‐spectrometry based kinase inhibitory assay was developed. A polypeptide sequence ([…], m/z: 618.6) derived from glycogen Synthase Kinase‐3(GSK3), a known substrate of SGK1, was optimized and synthesized. We subsequently used liquid chromatography coupled with mass spectrometry (LC/MS) to detect and quantify its phosphorylation level ([…](p)FAE, m/z:658.7) (Figure 3A).^[ [26] ^] Basal level SGK1 was supplemented to each well, and the peak area of phosphorylation was measured in the presence or absence of testing compounds. […] After investigating the major chemical constituents in Ext.R (Table S3, Supporting Information), a set of compounds in Ext.R were subsequently screened for their impacts on SGK1 activity. […] The direct interaction between HBT and SGK1 was further verified by temperature‐ and dose‐dependent cellular thermal shift assays (Figure 3E,F). We further performed a direct binding assay of HBT to SGK1 by KINOMEscan assay (Eurofins Discovery).
Synthesis of […] was prepared by Shanghai Sangong Biotech. In order to ensure the phosphorylation reaction of SGK1, SGK1 (0.25 µg mL^−1) was added to kinase buffer (25 mmol Tris [pH 7.5], 5 mmol β‐glycerolphosphate, 2 mmol DTT, 10 mmol MgCl2) with the substrate peptide […] (25 µmol) and ATP (200 µmol) and incubated for 1 h at 30 °C in the presence or absence of inhibitors. A concentration‐dependent assay for SGK1 at different concentrations (0.05, 0.1, 0.2, 0.25, and 0.3 µg mL^−1) was performed. Reactions were terminated by the addition of methyl alcohol with 0.1% trifluoroacetic acid (TFA), and supernatants were analyzed by the Agilent 1100 LC system (Agilent Technologies, USA) and a 1946D single quadrupole mass spectrometer. The acquisition parameters for LC/MS were set for positive ionization mode and selected ion monitoring (SIM) m/z values of 618.6 and 658.7 for the substrate peptide and product peptide respectively. Chromatographic separation was performed by a reversed‐phase ZORBAX SB‐C18 analytical column. The mobile phase included water containing 0.1% v/v TFA (A) and acetonitrile containing 0.1% v/v TFA (B). The flow rate was 0.6 mL min^−1. A gradient program was carried out according to the following profile: 0 min, 13% B; 15 min, 28% B; 16 min, 100% B. The constituents of Ext.R were screened by the assay to evaluate their inhibitory effects on SGK1 activity. A minimum of three replicates of each sample were analyzed and averaged together. Inhibition of SGK1 was calculated by the following equation (1) Inhibitionrate%=PC−PS/PC P C and P S represented the peak area of product peptide in the control group without test compounds and the tested sample group with various test compounds, respectively.

[1] = tested on: SGK1-dependent phosphorylation of NDRG1; design: method as in PMID 21865856; conditions: cited from earlier work
[2] = MS-based kinase inhibitory assay

Q: For `O=c1c(O)c(-c2ccc(O)cc2)oc2cc(O)cc(O)c12` [A1], which “reduction in SGK1 inhibitory activity, absence of -OH at C-8” value (SGK1) is on record?
A: greater than 10 fold

Q: And the IC50 (SGK1; in figure, n = 3)?
A: 11.3 µM

Q: Which IC50 [1] does the source give for `CCc1c(C(=O)NNC(=O)C(O)c2cc(F)cc(F)c2)ccc(O)c1C` (stereo not drawn) [EMD638683, reference compound] here?
A: 3.35 µM

Q: Which “reduction in SGK1 inhibitory activity, absence of -OH at C-3” value (SGK1) does the source give for `O=c1cc(-c2ccc(O)cc2)oc2c(O)c(O)ccc12` [A5] here?
A: significant reduction

Q: Which IC50 (SGK1; [2]) does the source give for `O=c1c(O)c(-c2ccc(O)cc2)oc2c(O)c(O)ccc12` [A2, 3,7,8‐trihydroxy‐2‐(4‐hydroxyphenyl) chromen‐4‐one] here?
A: 0.307 µM

Q: Which “reduction in SGK1 inhibitory activity, absence of -OH at C-8” value (SGK1) does the source give for `O=c1c(O)c(-c2ccc(O)cc2)oc2cc(O)ccc12` [A4] here?
A: greater than 10 fold

Q: And the IC50 (SGK1; in figure, n = 3)?
A: 11.6 µM

Q: Which IC50 (SGK1; [2]) does the source give for `O=C(O)/C=C/c1ccc(O)cc1` [p-coumaric acid] here?
A: 8.04 µM

Q: Which “reduction in SGK1 inhibitory activity, absence of -OH at C-3” value (SGK1) does the source give for `O=c1cc(-c2ccc(O)cc2)oc2c(O)c(O)cc(O)c12` [A3] here?
A: significant reduction

Reference: PMC8805583, “Discovery of Herbacetin as a Novel SGK1 Inhibitor to Alleviate Myocardial Hypertrophy” (Advanced Science, 2021)
